Assays:
PDGFR-β = biological target: T1, PDGFR-β (Homo sapiens, UniProt P09619); experiment: PDGFRβ (Cellular Assay), Ba/F3-Tel-PDGFRβ proliferation; type: cell-based; settings: read-out: IC50 for PDGFR-β
T1 construct: fused on or other part: P41212 (Transcription factor ETV6)

Abl(m) = biological target: T2, Abl(m) (Mus musculus, UniProt P00520); experiment: Upstate KinaseProfiler radio-enzymatic filter binding assay; type: biochemical; settings: read-out: percentage inhibition Abl(m)
T2 construct: purchased Upstate
T2 sequence (P00520 27-1123 limits assumed): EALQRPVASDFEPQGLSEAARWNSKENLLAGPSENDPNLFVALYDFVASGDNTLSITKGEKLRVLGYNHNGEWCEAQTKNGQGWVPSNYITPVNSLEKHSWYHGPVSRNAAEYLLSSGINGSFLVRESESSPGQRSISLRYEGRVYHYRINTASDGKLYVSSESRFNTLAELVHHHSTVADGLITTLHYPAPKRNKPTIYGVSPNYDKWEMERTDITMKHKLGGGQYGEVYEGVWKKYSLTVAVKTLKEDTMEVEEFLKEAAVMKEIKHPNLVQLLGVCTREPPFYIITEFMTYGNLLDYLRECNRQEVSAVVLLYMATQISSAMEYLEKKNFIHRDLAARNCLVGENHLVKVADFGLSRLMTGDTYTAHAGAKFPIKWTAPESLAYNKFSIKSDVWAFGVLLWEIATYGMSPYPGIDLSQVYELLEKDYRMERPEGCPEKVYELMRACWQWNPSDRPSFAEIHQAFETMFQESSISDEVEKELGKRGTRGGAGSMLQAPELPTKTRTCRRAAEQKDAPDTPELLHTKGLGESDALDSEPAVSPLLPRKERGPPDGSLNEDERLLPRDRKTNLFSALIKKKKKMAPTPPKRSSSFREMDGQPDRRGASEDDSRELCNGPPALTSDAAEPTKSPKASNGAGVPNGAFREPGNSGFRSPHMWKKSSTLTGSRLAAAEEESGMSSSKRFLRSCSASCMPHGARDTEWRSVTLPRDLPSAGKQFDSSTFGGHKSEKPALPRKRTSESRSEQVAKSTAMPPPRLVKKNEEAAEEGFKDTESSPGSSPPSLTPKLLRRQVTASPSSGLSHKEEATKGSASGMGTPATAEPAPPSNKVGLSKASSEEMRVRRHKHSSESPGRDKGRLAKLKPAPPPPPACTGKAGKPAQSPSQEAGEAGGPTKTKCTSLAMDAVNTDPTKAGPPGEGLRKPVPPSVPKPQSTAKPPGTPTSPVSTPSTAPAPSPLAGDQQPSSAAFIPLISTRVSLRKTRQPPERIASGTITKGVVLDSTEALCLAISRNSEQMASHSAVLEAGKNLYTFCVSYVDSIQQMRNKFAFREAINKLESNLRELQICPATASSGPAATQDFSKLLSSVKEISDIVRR
Description: (§1) Compounds of the invention are assessed for their ability to inhibit individual members of the kinase panel. The compounds are tested in duplicates at a final concentration of 10 μM following this generic protocol. Note that the kinase buffer composition and the substrates vary for the different kinases included in the “Upstate KinaseProfiler™” panel. Kinase buffer (2.5 μL, 10×—containing MnCl2 when required), active kinase (0.001-0.01 Units; 2.5 μL), specific or Poly(Glu4-Tyr) peptide (5-500 μM or 0.01 mg/ml) in kinase buffer and kinase buffer (50 μM; 5 μL) are mixed in an eppendorf on ice. A Mg/ATP mix (10 μL; 67.5 (or 33.75) mM MgCl2, 450 (or 225) μM ATP and 1 μCi/μl [γ-^32P]-ATP (3000 Ci/mmol)) is added and the reaction is incubated at about 30° C. for about 10 minutes. The reaction mixture is spotted (20 μL) onto a 2 cm×2 cm P81 (phosphocellulose, for positively charged peptide substrates) or Whatman No. 1 (for Poly (Glu4-Tyr) peptide substrate) paper square. The assay squares are washed 4 times, for 5 minutes each, with 0.75% phosphoric acid and washed once with acetone for 5 minutes. The assay squares are transferred to a scintillation vial, 5 ml scintillation cocktail are added and ^32P incorporation (cpm) to the peptide substrate is quantified with a Beckman scintillation counter. Percentage inhibition is calculated for each reaction.

Met(h) = biological target: T3, Met(h) (Homo sapiens, UniProt P08581); experiment: as above; type: biochemical; settings: read-out: percentage inhibition Met(h)
T3 construct: purchased Upstate
T3 sequence (P08581 25-1390): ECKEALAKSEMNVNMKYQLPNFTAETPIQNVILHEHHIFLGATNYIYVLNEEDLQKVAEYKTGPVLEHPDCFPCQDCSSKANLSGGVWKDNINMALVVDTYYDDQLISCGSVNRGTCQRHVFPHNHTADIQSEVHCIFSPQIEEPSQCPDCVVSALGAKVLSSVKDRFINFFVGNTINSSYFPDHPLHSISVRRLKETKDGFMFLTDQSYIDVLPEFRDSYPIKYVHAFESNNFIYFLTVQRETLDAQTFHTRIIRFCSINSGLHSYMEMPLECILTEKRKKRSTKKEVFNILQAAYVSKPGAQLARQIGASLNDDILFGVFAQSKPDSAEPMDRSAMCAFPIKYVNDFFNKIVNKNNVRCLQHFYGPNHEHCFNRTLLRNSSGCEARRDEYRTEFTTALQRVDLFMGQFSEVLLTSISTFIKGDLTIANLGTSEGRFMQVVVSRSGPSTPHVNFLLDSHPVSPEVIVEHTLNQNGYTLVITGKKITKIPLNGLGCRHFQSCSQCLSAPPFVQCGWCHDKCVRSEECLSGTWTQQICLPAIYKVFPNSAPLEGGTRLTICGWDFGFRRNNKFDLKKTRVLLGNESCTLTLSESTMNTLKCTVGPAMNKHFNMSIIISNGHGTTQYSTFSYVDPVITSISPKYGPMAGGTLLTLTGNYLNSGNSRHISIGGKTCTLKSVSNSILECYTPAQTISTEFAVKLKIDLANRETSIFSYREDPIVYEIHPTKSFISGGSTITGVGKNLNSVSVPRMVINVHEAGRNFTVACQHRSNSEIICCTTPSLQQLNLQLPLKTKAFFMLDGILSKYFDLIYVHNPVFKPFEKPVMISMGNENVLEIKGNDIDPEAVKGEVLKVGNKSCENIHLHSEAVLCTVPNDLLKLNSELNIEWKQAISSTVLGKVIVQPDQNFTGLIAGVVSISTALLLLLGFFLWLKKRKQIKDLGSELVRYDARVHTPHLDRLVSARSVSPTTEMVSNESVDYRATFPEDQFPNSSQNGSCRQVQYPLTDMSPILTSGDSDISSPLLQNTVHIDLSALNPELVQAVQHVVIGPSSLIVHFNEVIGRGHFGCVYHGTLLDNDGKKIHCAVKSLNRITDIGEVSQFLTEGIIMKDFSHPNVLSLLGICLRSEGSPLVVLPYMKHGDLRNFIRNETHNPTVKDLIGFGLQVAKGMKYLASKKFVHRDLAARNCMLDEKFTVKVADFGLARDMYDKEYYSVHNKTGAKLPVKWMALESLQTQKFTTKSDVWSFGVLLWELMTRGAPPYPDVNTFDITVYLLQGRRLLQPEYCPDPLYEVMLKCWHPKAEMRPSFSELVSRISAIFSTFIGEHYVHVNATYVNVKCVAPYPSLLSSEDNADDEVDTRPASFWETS
Description: as §1

PAK2(h) = biological target: T4, PAK2(h) (Homo sapiens, UniProt Q13177); experiment: as above; type: biochemical; settings: read-out: percentage inhibition PAK2(h)
T4 construct: purchased Upstate
T4 sequence (Q13177 whole entry): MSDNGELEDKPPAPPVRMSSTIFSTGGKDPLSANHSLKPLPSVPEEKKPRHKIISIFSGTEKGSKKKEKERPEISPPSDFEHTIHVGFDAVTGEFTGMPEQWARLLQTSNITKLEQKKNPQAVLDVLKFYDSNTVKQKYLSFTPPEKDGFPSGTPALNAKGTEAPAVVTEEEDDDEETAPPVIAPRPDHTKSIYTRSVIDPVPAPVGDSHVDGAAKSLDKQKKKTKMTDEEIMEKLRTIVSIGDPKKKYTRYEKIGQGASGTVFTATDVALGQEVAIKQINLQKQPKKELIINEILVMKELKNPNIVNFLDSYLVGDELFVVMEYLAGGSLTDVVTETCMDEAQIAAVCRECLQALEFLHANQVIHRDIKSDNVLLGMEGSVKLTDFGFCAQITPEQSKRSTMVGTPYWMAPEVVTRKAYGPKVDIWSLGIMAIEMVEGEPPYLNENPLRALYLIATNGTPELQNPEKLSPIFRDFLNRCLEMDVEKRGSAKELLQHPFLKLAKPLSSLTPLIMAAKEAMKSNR
Description: as §1

PKA(h) = biological target: T5, PKA(h) (Homo sapiens, UniProt P17612); experiment: as above; type: biochemical; settings: read-out: percentage inhibition PKA(h)
T5 construct: purchased Upstate
Description: as §1

SAPK2p(h) = biological target: T6, SAPK2p(h) (Homo sapiens, UniProt Q15759); experiment: as above; type: biochemical; settings: read-out: percentage inhibition SAPK2p(h)
T6 construct: purchased Upstate
T6 sequence (Q15759 whole entry): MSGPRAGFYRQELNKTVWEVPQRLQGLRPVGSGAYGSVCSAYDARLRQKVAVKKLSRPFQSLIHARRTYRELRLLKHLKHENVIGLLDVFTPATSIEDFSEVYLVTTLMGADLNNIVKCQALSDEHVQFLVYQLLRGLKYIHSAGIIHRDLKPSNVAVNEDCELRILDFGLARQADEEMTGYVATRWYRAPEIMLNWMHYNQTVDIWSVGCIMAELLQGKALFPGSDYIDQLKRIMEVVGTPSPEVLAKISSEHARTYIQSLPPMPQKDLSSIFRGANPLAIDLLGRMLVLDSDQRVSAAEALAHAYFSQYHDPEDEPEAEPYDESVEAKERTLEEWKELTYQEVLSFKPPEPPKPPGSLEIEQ
Description: as §1

Tie2(h) = biological target: T7, Tie2(h) (Homo sapiens, UniProt Q02763); experiment: as above; type: biochemical; settings: read-out: percentage inhibition Tie2(h)
T7 construct: purchased Upstate
Description: as §1

TrkB(h) = biological target: T8, TrkB(h) (Homo sapiens, UniProt Q16620); experiment: as above; type: biochemical; settings: read-out: percentage inhibition TrkB(h)
T8 construct: purchased Upstate
T8 sequence (Q16620 32-822): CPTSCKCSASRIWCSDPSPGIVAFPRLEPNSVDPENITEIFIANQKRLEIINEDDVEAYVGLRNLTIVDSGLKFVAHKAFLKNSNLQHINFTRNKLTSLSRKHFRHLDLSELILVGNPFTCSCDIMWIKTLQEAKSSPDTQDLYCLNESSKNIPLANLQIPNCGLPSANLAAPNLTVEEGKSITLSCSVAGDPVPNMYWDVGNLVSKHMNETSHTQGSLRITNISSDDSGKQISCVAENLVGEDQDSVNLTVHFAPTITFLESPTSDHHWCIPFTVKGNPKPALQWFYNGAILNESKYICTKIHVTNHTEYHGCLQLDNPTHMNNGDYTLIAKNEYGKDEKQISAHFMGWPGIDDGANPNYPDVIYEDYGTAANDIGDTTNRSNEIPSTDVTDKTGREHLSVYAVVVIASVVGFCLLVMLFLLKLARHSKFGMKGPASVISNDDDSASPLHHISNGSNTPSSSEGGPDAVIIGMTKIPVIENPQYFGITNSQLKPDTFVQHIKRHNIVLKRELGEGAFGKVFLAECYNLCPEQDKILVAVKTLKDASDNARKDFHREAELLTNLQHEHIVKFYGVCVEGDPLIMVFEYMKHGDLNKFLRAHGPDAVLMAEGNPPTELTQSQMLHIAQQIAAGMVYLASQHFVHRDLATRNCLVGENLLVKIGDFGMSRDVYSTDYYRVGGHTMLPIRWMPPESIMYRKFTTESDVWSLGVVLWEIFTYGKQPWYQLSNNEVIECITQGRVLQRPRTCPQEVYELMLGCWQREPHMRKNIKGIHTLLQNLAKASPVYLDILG
Description: as §1

T1 sequence (P09619 600-962 limits assumed, change not shown): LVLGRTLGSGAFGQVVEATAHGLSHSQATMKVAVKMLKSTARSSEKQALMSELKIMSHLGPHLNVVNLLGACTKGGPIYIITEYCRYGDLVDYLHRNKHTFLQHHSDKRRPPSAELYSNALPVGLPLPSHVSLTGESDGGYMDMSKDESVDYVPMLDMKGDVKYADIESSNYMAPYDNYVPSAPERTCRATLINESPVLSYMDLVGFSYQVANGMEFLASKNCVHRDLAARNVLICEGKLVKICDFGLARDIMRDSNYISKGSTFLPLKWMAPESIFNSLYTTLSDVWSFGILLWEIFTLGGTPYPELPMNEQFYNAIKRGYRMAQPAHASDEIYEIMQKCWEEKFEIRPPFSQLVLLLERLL

GI50 (PDGFR-β): 3.8 nM
inhibition at 10 µM (Abl(m)): 98%
inhibition at 10 µM (Met(h)): 70%
inhibition at 10 µM (PAK2(h)): 62%
inhibition at 10 µM (PKA(h)): 92%
inhibition at 10 µM (SAPK2p(h)): 85%
inhibition at 10 µM (Tie2(h)): 98%
inhibition at 10 µM (TrkB(h)): 99%
Structure (SMILES): CCN1CCN(Cc2ccc(NC(=O)c3ccc(C)c(NC(=O)N(C)c4ncnc5[nH]ccc45)c3)cc2C(F)(F)F)CC1 [Example 4, N-[4-(4-Ethyl-piperazin-1-ylmethyl)-3-trifluoromethyl-phenyl]-4-methyl-3-[3-methyl-3-(7H-pyrrolo[2,3-d]pyrimidin-4-yl)-ureido]-benzamide]
